# According to US9802899B2, “Heterocyclic compounds as pesticides” (BAYER CROPSCIENCE AG, priority 2012, dated 2017):
# Experiments:
# [1] = system: Boophilus microplus; test: Boophilus microplus test (DIP); format: in vivo; conditions: application rate 100 ppm, after 7 days by laying of fertile eggs, 100% = no fertile eggs
# Procedure: Boophilus microplus Test (DIP)
# Test animals: adult engorged Boophilus microplus females of the SP-resistant Parkhurst strain
# (§1) Solvent: dimethyl sulphoxide
# 10 mg of active compound are dissolved in 0.5 ml of dimethyl sulphoxide. For the purpose of preparing a suitable formulation, the active compound solution is diluted with water to the concentration desired in each case.
# This active compound preparation is pipetted into tubes. 8-10 ticks are transferred into a further tube with holes. The tube is immersed into the active compound formulation, and all ticks are completely wetted. After the liquid has run out, the ticks are transferred onto filter discs in plastic dishes and stored in a climate-controlled room.
# The activity is assessed after 7 days by laying of fertile eggs. Eggs whose fertility is not visible from the outside are stored in a climate-controlled cabinet until the larvae hatch. An efficacy of 100% means that none of the ticks has laid any fertile eggs.
# [2] = Determination of the log P values by HPLC (formic acid method); format: physicochemical; conditions: reversed-phase column (C 18), acidic range (pH 3.4), 55° C.; for chromatographic logP: reversed-phase HPLC column (C 18)
# Procedure: 1) Description of Method for Determination of the Log P Values (Formic Acid Method)
# Eluents for determination in the acidic range (pH 3.4):
# Eluent A: acetonitrile+1 ml of formic acid/liter. Eluent B: water+0.9 ml of formic acid/liter.
# The lambda max values were determined in the maxima of the chromatographic signals using the UV spectra from 200 nm to 400 nm.
# [3] = system: Cooperia curticei; test: Cooperia curticei test (COOPCU); format: in vivo; conditions: nematode larvae, after 5 days
# Procedure: Cooperia curticei Test (COOPCU)
# as §1
# To produce a suitable preparation of active compound, 10 mg of active compound are mixed with 0.5 ml of dimethyl sulphoxide, and the concentrate is diluted with Ringer solution to the desired concentration.
# Vessels containing the active compound preparation of the desired concentration are populated with about 40 nematode larvae (Cooperia curticei).
# After 5 days, the kill in % is determined 100% means that all of the larvae have been killed; 0% means that none of the larvae have been killed.
# [4] = system: Meloidogyne incognita; test: Meloidogyne incognita test (MELGIN); format: in vivo; conditions: application rate 20 ppm, lettuce in sand, after 14 days; for pest or weed control at 20 ppm: Meloidogyne incognita, 336 h, read-out: nematicidal effect (formation of galls)
# Procedure: Meloidogyne incognita Test (MELGIN)
# Solvent: 125.0 parts by weight of acetone
# To prepare a suitable active compound preparation, 1 part by weight of active compound is mixed with the stated amount of solvent and the concentrate is diluted with water to the desired concentration.
# Vessels are filled with sand, active compound solution, an egg/larvae suspension of the root-knot nematode (Meloidogyne incognita) and lettuce seeds. The lettuce seeds germinate and the plants develop. On the roots, galls are formed.
# After 14 days, the nematicidal effect in % is determined by the formation of galls. 100% means that no galls have been found; 0% means that the number of galls on the treated plants corresponds to the untreated control.
# [5] = system: Phaedon cochleariae; test: Phaedon cochleariae spray test (PHAECO); format: in vivo; conditions: foliar, 168 h, application rate 500 g/ha, larvae on Chinese cabbage leaf discs, after 7 days, read-out: efficacy
# Procedure: Phaedon cochleariae Spray Test (PHAECO)
# Solvents: 78.0 parts by weight of acetone • • 1.5 parts by weight of dimethylformamide
# Emulsifier: 0.5 part by weight of alkylaryl polyglycol ether
# To produce a suitable preparation of active compound, 1 part by weight of active compound is mixed with the stated amounts of solvents and emulsifier, and the concentrate is diluted with emulsifier-containing water to the desired concentration.
# After 7 days, the efficacy in % is determined. 100% means that all of the beetle larvae have been killed; 0% means that none of the beetle larvae have been killed.
Structure (SMILES),log P [2],chromatographic logP [2],also measured
O=C(Nc1ccn(-c2ccccc2Cl)n1)c1ccccc1Br [Compound I-1-32],2.83,,efficacy [1]: 80%
O=C(Nc1cnn(-c2ccccc2Br)n1)c1ccccc1Cl [Compound I-2-7],2.93,,efficacy (kill) ([3]; application rate 4 ppm): 80%
O=C(Nc1ccn(-c2c(F)cccc2F)n1)c1sccc1C(F)(F)F [Compound I-1-284],2.82,,efficacy (kill) ([3]; application rate 4 ppm): 80%
O=C(Nc1ccn(-c2ccccc2C(F)(F)F)n1)c1ccccc1I [Compound I-1-5],3.05,,efficacy [1]: 100%
O=C(Nc1ccn(-c2c(Cl)cccc2Cl)n1)c1ccccc1Cl [Compound I-1-121],2.84,,efficacy (kill) ([3]; application rate 100 ppm): 80%
"N#Cc1c(-c2ccc(F)cc2)ccnc1-n1ccc(NC(=O)c2ccccc2C(F)(F)F)n1 [Compound I-1-641, N-{1-[3-Cyano-4-(4-fluorophenyl)pyridin-2-yl]-1H-pyrazol-3-yl}-2-(trifluoromethyl)benzamide]",,3.41,pest or weed control at 20 ppm [4]: 90%
CCN(C(=O)c1ccccc1Cl)c1ccn(-c2ccccc2Cl)n1 [Compound I-1-22],3.41,,efficacy (kill) ([3]; application rate 100 ppm): 80%
"Cc1cccc(C)c1-n1ccc(NC(=O)c2ccccc2Cl)n1 [Compound I-1-61, 2-Chloro-N-[1-(2,6-dimethylphenyl)-1H-pyrazol-3-yl]benzamide]",,2.63,pest or weed control at 500 g/ha [5]: 100%
O=C(Nc1ccn(-c2cccc(Cl)c2F)n1)c1ccccc1C(F)(F)F [Compound I-1-555],3.37,,efficacy (kill) ([3]; application rate 4 ppm): 90%
O=C(Nc1ccn(-c2ccc(F)cc2F)n1)c1ccccc1Cl [Compound I-1-211],2.91,,efficacy (kill) ([3]; application rate 100 ppm): 80%
Cc1nn(C)c(Cl)c1C(=O)Nc1ccn(-c2ccccc2Cl)n1 [Compound I-1-48],2.46,,efficacy [1]: 100%
"CN(C(=O)c1ccccc1Cl)c1ccn(-c2ccccc2Cl)n1 [Compound I-1-21, 2-Chloro-N-[1-(2-chlorophenyl)-1H-pyrazol-3-yl]-N-methylbenzamide]",,3.14,pest or weed control at 500 g/ha [5]: 100%
"O=C(Nc1ccn(-c2c(F)cc(F)c[n+]2[O-])n1)c1ccccc1C(F)(F)F [Compound I-1-438, N-[1-(3,5-Difluoro-1-oxidopyridin-2-yl)-1H-pyrazol-3-yl]-2-(trifluoromethyl)benzamide]",,1.69,pest or weed control at 20 ppm [4]: 90%
"O=C(NC1=NN(c2c(F)cccc2F)CC1)c1ccccc1Br [Compound I-4-2, 2-Bromo-N-[1-(2,6-difluorophenyl)-4,5-dihydro-1H-pyrazol-3-yl]benzamide]",,2.8,pest or weed control at 500 g/ha [5]: 100%
O=C(Nc1ccn(-c2ncccc2Cl)n1)c1ccccc1Br [Compound I-1-137],2.23,,nematicidal effect (formation of galls) [4]: 80%
O=C(Nc1ccn(-c2c(F)cccc2F)n1)c1ccccc1I [Compound I-1-83],2.67,,efficacy [1]: 100%
"Cn1nc(C(F)(F)F)c(C(=O)Nc2ccn(-c3cc(F)ccc3F)n2)c1F [Compound I-1-72, N-[1-(2,5-Difluorophenyl)-1H-pyrazol-3-yl]-5-fluoro-1-methyl-3-(trifluoromethyl)-1H-pyrazole-4-carboxamide]",,2.93,pest or weed control at 500 g/ha [5]: 100%
O=C(Nc1ccn(-c2c(F)cccc2F)n1)c1cccnc1Br [Compound I-1-96],1.97,,efficacy [1]: 100%
"O=C(Nc1nn(-c2ccccc2Cl)cc1Cl)c1ccccc1C(F)(F)F [Compound I-1-15, N-[4-Chloro-1-(2-chlorophenyl)-1H-pyrazol-3-yl]-2-(trifluoromethyl)benzamide]",,3.06,pest or weed control at 500 g/ha [5]: 100%
"Cc1ccccc1-n1ccc(NC(=O)c2ccccc2Br)n1 [Compound I-1-1, 2-BromoN-[1-(2-methylphenyl)-1H-pyrazol-3-yl]benzamide]",,2.79,pest or weed control at 500 g/ha [5]: 100%

Structure (SMILES),log P [2],chromatographic logP [2],also measured
"O=C(Nc1ccn(-c2c(Cl)cccc2Cl)n1)c1ccccc1I [Compound I-1-123, N-[1-(2,6-Dichlorophenyl)-1H-pyrazol-3-yl]-2-iodobenzamide]",,3.04,pest or weed control at 500 g/ha [5]: 100%
O=C(Nc1ccn(-c2ccccc2Cl)n1)c1ccccc1I [Compound I-1-33],2.95,,efficacy [1]: 100%
"N#Cc1nccnc1-n1ccc(NC(=O)c2ccccc2C(F)(F)F)n1 [Compound I-1-574, N-[1-(3-Cyanopyrazin-2-yl)-1H-pyrazol-3-yl]-2-(trifluoromethyl)benzamide]",,2.47,pest or weed control at 20 ppm [4]: 100%
O=C(Nc1ccn(-c2cccc(F)c2F)n1)c1ccccc1I [Compound I-1-190],3.09,,nematicidal effect (formation of galls) [4]: 90%
"O=C(Nc1nn(-c2ccccc2Cl)cc1Br)c1ccccc1C(F)(F)F [Compound I-1-16, N-[4-Bromo-1-(2-chlorophenyl)-1H-pyrazol-3-yl]-2-(trifluoromethyl)benzamide]",,3.11,pest or weed control at 500 g/ha [5]: 83%
CC(=O)N(C(=O)c1ccccc1C(F)(F)F)c1ccn(-c2ncc(F)cc2F)n1 [Compound I-1-142],2.97,,
O=C(Nc1cnn(-c2ncccc2Br)n1)c1ccccc1I [Compound I-2-18],2.43,,
O=C(Nc1ccn(-c2ncccc2F)n1)c1cccnc1OC(F)(F)F [Compound I-1-577],2.33,,
O=C(Nc1ccn(-c2ncc(F)cc2F)n1)c1sccc1I [Compound I-1-507],2.69,,
Cn1ncnc1C(=O)Nc1ccn(-c2ncc(F)cc2F)n1 [Compound I-1-449],1.67,,
O=C(Nc1ccn(-c2ccccc2Br)n1)c1ccccc1I [Compound I-1-53],3.07,,efficacy [1]: 90%
Cn1nc(C(F)(F)F)c(C(=O)Nc2ccn(-c3ncc(F)cc3F)n2)c1C(F)(F)F [Compound I-1-451],2.79,,
O=C(Nc1nn(-c2ncc(F)cc2F)c2ccccc12)c1ccccc1Br [Compound I-5-3],3.09,,
N#Cc1cc(F)ccc1-n1ccc(NC(=O)c2ccccc2I)n1 [Compound I-1-634],2.57,,
Cc1cc(NC(=O)c2ccccc2Cl)nn1-c1ccccc1Cl [Compound I-1-31],2.45,,
"Fc1cccc(F)c1-n1cccc1 [Ex. 46-I, 1-(2,6-Difluorophenyl)-1H-pyrrole]",,2.98,
C=CCN(C(=O)c1ccccc1C(F)(F)F)c1ccn(-c2ncc(F)cc2F)n1 [Compound I-1-469],3.38,,
Cc1cc(C)c(C#N)c(-n2ccc(NC(=O)c3ccccc3C(F)(F)F)n2)n1 [Compound I-1-567],3.15,,
O=C(Nc1ccn(-c2ncc(F)cc2F)n1)c1cccnc1Cl [Compound I-1-152],1.72,,
O=C(Nc1cnn(-c2c(F)cccc2F)n1)c1ncccc1C(F)(F)F [Compound I-2-80],2.78,,
